According to patent US20180200257A1, “METHODS FOR THE TREATMENT OF INFLAMMATORY DISORDERS” (Galapagos NV, priority 2015, published 2018):

Tested on: subjects with moderately to severely active RA who have an inadequate response to methotrexate (MTX)
Test: Study 1 (add-on to MTX) - DAS28(CRP) scores
Type: in vivo, human
Set-up: key to DAS28(CRP) mean CFB (LOCF): change from baseline in DAS28(CRP) score (joints, CRP, 0-100 VAS)
Experimental: Double-blind, placebo-controlled add on study in subjects with moderately to severely active RA who have an inadequate response to methotrexate (MTX) (oral or parenteral).
595 subjects randomized to one of 6 dose regimens of Compound 1 (dosed as [Compound 1:HCl:3H2O]) (3 dose levels administered either once or twice daily) or placebo on top of each subject's stable dose of MTX.
Compound 1 (dosed as [Compound 1:HCl:3H2O]) is dosed for twelve weeks once daily (q.d.) (50 mg, 100 mg or 200 mg) or twice daily (b.i.d.) (25 mg, 50 mg or 100 mg); or placebo.
At Week 12, the subjects on placebo who have not achieved 20% improvement in swollen joint count (SJC66) and tender joint count (TJC68) are re-randomized automatically to receive Compound 1 (dosed as a [Compound 1:HCl:3H2O]) either at 100 mg q.d. or 50 mg b.i.d. doses in a blinded fashion; subjects on 50 mg q.d. who have not achieved 20% improvement in SJC66 and TJC68 will be assigned to 100 mg q.d. and subjects on 25 mg b.i.d. that have not achieved a 20% improvement in SJC66 and TJC68 will be assigned to 50 mg b.i.d. Subjects who switch treatment at week 12 are handled as if they discontinued at week 12 for the purpose of statistical analysis, whereas subjects in the other groups will maintain their randomized treatment until Week 24.
The (DAS28(CRP)) is a system developed and validated by the European League Against Rheumatism (EULAR) to measure the progress and improvement of rheumatoid arthritis and has been extensively validated (Wells et al., 2008). The DAS28(CRP) scoring includes a 28 tender and swollen joint count, CRP measurement from blood analysis, and a general health assessment on a visual analog scale (Fransen et al., 2003).
DAS28(CRP) values range from 2.0 to 10.0, and more particularly reflect the following status: • Remission: DAS28(CRP) ≤2.6 • Low Disease activity: 2.6 <DAS28(CRP) ≤3.2 • Moderate Disease Activity: 3.2 <DAS28(CRP) ≤5.1 • High Disease Activity: DAS28(CRP) >5.1
In practice, the DAS28(CRP) measurement involves the evaluation 28 different joints including in the measurement (proximal interphalangeal joints (10 joints), metacarpophalangeal joints (10), wrists (2), elbows (2), shoulders (2), and knees (2)). When looking at these joints, both the number of joints with tenderness upon touching and swelling are counted.
Secondly, C-reactive protein level is measured.
Finally, the patient makes a subjective assessment of disease activity during the preceding 7 days on a scale between 0 and 100, where 0 is “no activity” and 100 is “highest activity possible”.
The DAS28(CRP) score is then calculated as follows:
Firstly, the patient is asked to make a vertical mark on a 100 mm Visual Analog Scale (VAS) corresponding to their general health or global disease activity on a touch screen to measure the VAS value, which is used in the formula below.
Secondly, a swollen and tender joint examination is then performed on the patient. The swollen and tender joints are recorded. From this examination are obtained the total amount of swollen joints (SJC) and the total amount of tender joints (TJC), which are used in the formula below.
Thirdly, C-reactive protein (CRP) levels are measured.
Finally, the values obtained above (VAS, TJC28, SJC28, and CRP) are computed into the following Formula to obtain the DAS28(CRP) score.
DAS28(CRP)=0.56*√{square root over (TJC28)}+0.28√{square root over (SJC28)}+[…] ln(CRP+1)+0.014*VAS
The improvement (decreases) in the DAS28(CRP) scores for each patient group at weeks 1, 2, 4, 8 and 12 is shown in Table LXXXVII and Table LXXXVIII below, together with the Hommel-corrected p-value for the pairwise comparisons of each group with placebo.
The number of subjects (N) provided in each groups corresponds to the number of subjects starting the study in each group, and the DAS28 (CRP) data reported below corresponds to the responding subjects continuing for the entire 24 weeks on their initial treatment course.

[1] = 2 × 25 mg b.i.d., 12 weeks results
[2] = 2 × 25 mg b.i.d., 24 weeks results
[3] = 2 × 50 mg b.i.d., 12 weeks results
[4] = 2 × 50 mg b.i.d., 24 weeks results
[5] = 2 × 100 mg b.i.d., 12 weeks results
[6] = 2 × 100 mg b.i.d., 24 weeks results

For `O=C(Nc1nc2cccc(-c3ccc(CN4CCS(=O)(=O)CC4)cc3)n2n1)C1CC1` [Compound 1, cyclopropanecarboxylic acid {5-[4-(1,1-dioxo-thiomorpholin-4-ylmethyl)-phenyl]-[1,2,4]triazolo[1,5-a]pyridin-2-yl}-amide], the “DAS28(CRP) mean CFB (LOCF)” value (2 × 25 mg b.i.d., week 2, 12 weeks results) was −1.06, the “DAS28(CRP) mean CFB (LOCF)” value (2 × 25 mg b.i.d., week 2, 24 weeks results) was −1.06 and the “DAS28(CRP) mean CFB (LOCF)” value (2 × 25 mg b.i.d., week 4, 12 weeks results) was −1.45. The “DAS28(CRP) mean CFB (LOCF)” value (2 × 25 mg b.i.d., week 4, 24 weeks results) was −1.45, the “DAS28(CRP) mean CFB (LOCF)” value (2 × 25 mg b.i.d., week 8, 12 weeks results) was −1.82 and the “DAS28(CRP) mean CFB (LOCF)” value (2 × 25 mg b.i.d., week 8, 24 weeks results) was −1.82. The “DAS28(CRP) mean CFB (LOCF)” value (2 × 25 mg b.i.d., week 12, 12 weeks results) was −1.88, the “DAS28(CRP) mean CFB (LOCF)” value (2 × 25 mg b.i.d., week 12, 24 weeks results) was −1.88 and the “DAS28(CRP) mean CFB (LOCF)” value (2 × 25 mg b.i.d., week 16, 24 weeks results) was −2.02. The “DAS28(CRP) mean CFB (LOCF)” value (2 × 25 mg b.i.d., week 20, 24 weeks results) was −2.07, the “DAS28(CRP) mean CFB (LOCF)” value (2 × 25 mg b.i.d., week 24, 24 weeks results) was −2.19 and the “% patients reaching low disease activity and/or remission at week 12 (LOCF)” value [1] was 28%. The “% patients reaching low disease activity at week 12 (LOCF)” value [1] was 13%, the “% patients reaching remission at week 12 (LOCF)” value [1] was 15% and the “% patients reaching low disease activity and/or remission at week 24 (LOCF)” value [2] was 40%. The “% patients reaching low disease activity at week 24 (LOCF)” value [2] was 16%, the “% patients reaching remission at week 24 (LOCF)” value [2] was 23% and the “DAS28(CRP) mean CFB (LOCF)” value (2 × 25 mg b.i.d., Week 1, 12 weeks results) was −0.68. The “DAS28(CRP) mean CFB (LOCF)” value (2 × 25 mg b.i.d., Week 1, 24 weeks results) was −0.68, the “DAS28(CRP) mean CFB (LOCF)” value (2 × 50 mg b.i.d., week 2, 12 weeks results) was −1.22 and the “DAS28(CRP) mean CFB (LOCF)” value (2 × 50 mg b.i.d., week 2, 24 weeks results) was −1.22. For the same molecule, the “DAS28(CRP) mean CFB (LOCF)” value (2 × 50 mg b.i.d., week 4, 12 weeks results) was −1.65, the “DAS28(CRP) mean CFB (LOCF)” value (2 × 50 mg b.i.d., week 4, 24 weeks results) was −1.63 and the “DAS28(CRP) mean CFB (LOCF)” value (2 × 50 mg b.i.d., week 8, 12 weeks results) was −1.93. The “DAS28(CRP) mean CFB (LOCF)” value (2 × 50 mg b.i.d., week 8, 24 weeks results) was −1.93, the “DAS28(CRP) mean CFB (LOCF)” value (2 × 50 mg b.i.d., week 12, 12 weeks results) was −2.10 and the “DAS28(CRP) mean CFB (LOCF)” value (2 × 50 mg b.i.d., week 12, 24 weeks results) was −2.10. The “DAS28(CRP) mean CFB (LOCF)” value (2 × 50 mg b.i.d., week 16, 24 weeks results) was −2.37, the “DAS28(CRP) mean CFB (LOCF)” value (2 × 50 mg b.i.d., week 20, 24 weeks results) was −2.40 and the “DAS28(CRP) mean CFB (LOCF)” value (2 × 50 mg b.i.d., week 24, 24 weeks results) was −2.40. The “% patients reaching low disease activity and/or remission at week 12 (LOCF)” value [3] was 29%, the “% patients reaching low disease activity at week 12 (LOCF)” value [3] was 11% and the “% patients reaching remission at week 12 (LOCF)” value [3] was 18%. For the same molecule, the “% patients reaching low disease activity and/or remission at week 24 (LOCF)” value [4] was 38%, the “% patients reaching low disease activity at week 24 (LOCF)” value [4] was 14% and the “% patients reaching remission at week 24 (LOCF)” value [4] was 24%. The “DAS28(CRP) mean CFB (LOCF)” value (2 × 50 mg b.i.d., Week 1, 12 weeks results) was −0.84, the “DAS28(CRP) mean CFB (LOCF)” value (2 × 50 mg b.i.d., Week 1, 24 weeks results) was −0.84 and the “DAS28(CRP) mean CFB (LOCF)” value (2 × 100 mg b.i.d., week 2, 12 weeks results) was −1.84. For the same molecule, the “DAS28(CRP) mean CFB (LOCF)” value (2 × 100 mg b.i.d., week 2, 24 weeks results) was −1.84, the “DAS28(CRP) mean CFB (LOCF)” value (2 × 100 mg b.i.d., week 4, 12 weeks results) was −2.28 and the “DAS28(CRP) mean CFB (LOCF)” value (2 × 100 mg b.i.d., week 4, 24 weeks results) was −2.24. For the same molecule, the “DAS28(CRP) mean CFB (LOCF)” value (2 × 100 mg b.i.d., week 8, 12 weeks results) was −2.72, the “DAS28(CRP) mean CFB (LOCF)” value (2 × 100 mg b.i.d., week 8, 24 weeks results) was −2.72 and the “DAS28(CRP) mean CFB (LOCF)” value (2 × 100 mg b.i.d., week 12, 12 weeks results) was −2.84. For the same molecule, the “DAS28(CRP) mean CFB (LOCF)” value (2 × 100 mg b.i.d., week 12, 24 weeks results) was −2.84, the “DAS28(CRP) mean CFB (LOCF)” value (2 × 100 mg b.i.d., week 16, 24 weeks results) was −3.06 and the “DAS28(CRP) mean CFB (LOCF)” value (2 × 100 mg b.i.d., week 20, 24 weeks results) was −3.02. For the same molecule, the “DAS28(CRP) mean CFB (LOCF)” value (2 × 100 mg b.i.d., week 24, 24 weeks results) was −3.23, the “% patients reaching low disease activity and/or remission at week 12 (LOCF)” value [5] was 50% and the “% patients reaching low disease activity at week 12 (LOCF)” value [5] was 14%. The “% patients reaching remission at week 12 (LOCF)” value [5] was 36%, the “% patients reaching low disease activity and/or remission at week 24 (LOCF)” value [6] was 64% and the “% patients reaching low disease activity at week 24 (LOCF)” value [6] was 24%. For the same molecule, the “% patients reaching remission at week 24 (LOCF)” value [6] was 40%, the “DAS28(CRP) mean CFB (LOCF)” value (2 × 100 mg b.i.d., Week 1, 12 weeks results) was −1.33 and the “DAS28(CRP) mean CFB (LOCF)” value (2 × 100 mg b.i.d., Week 1, 24 weeks results) was −1.33.
